From ChEMBL document CHEMBL5244279, “Perspectives on SARS-CoV-2 Main Protease Inhibitors” (J Med Chem, 2021)
Peptide text beside a SMILES is read from it.

How the values were obtained:
[1] = target: T1, Replicase polyprotein 1ab (Severe acute respiratory syndrome coronavirus 2, UniProt P0DTD1); assay: Inhibition of N-terminal MBP-tagged SARS CoV-2 Main protease by fluorescence based analysis
[2] = Inhibition of SARS CoV Main protease using MCA-AVLQSGFR-Lys(DNP)-Lys-NH2 peptide as substrate by fluorescence based analysis; design: species or system Severe acute respiratory syndrome-related coronavirus
[3] = Binding affinity to SARS CoV Main protease incubated for 20 mins by reverse-phase HPLC analysis; design: species or system Severe acute respiratory syndrome-related coronavirus
[4] = Cytotoxicity against human Huh-7 cells assessed as reduction of cell viability; format: toxicity, cell-based
[5] = Cytotoxicity against cat CRFK cells assessed as reduction of cell viability; format: toxicity, cell-based, Felis catus
[6] = Cytotoxicity against African green monkey Vero E6 cells assessed as reduction of cell viability by CellTiterGlo assay; format: toxicity, cell-based, Vero C1008; conditions: chlorocebus sabaeus
[7] = Cytotoxicity against mouse L929 cells assessed as reduction of cell viability; format: toxicity, cell-based
[8] = Inhibition of SARS CoV Main protease using Dabcyl-KTSAVLQSGFRKM-E(Edans)-NH2 peptide as substrate by FRET assay; design: species or system Severe acute respiratory syndrome-related coronavirus
SARS-CoV [9] = assay: Antiviral activity against SARS CoV infected in human Calu-3 cells assessed as reduction in viral RNA replication by qPCR analysis; format: functional, organism-based; conditions: Severe acute respiratory syndrome-related coronavirus
[10] = target: T1, Replicase polyprotein 1ab; assay: Inhibition of SARS CoV-2 Main protease using MCA-AVLQSGFR-Lys(DNP)-Lys-NH2 peptide as substrate by fluorescence based analysis
[11] = Inhibition of SARS CoV Main protease using 2-aminobenzoyl-SVTLQSG-Tyr(NO2)-R peptide as substrate by FRET assay; design: species or system Severe acute respiratory syndrome-related coronavirus
[12] = AUC in Sprague-Dawley rat at 10 mg/kg, iv measured upto 24 hrs by LC-MS/MS analysis; format: ADME, organism-based; design: time < 24 hrs, dose 10 mg/kg, route iv; conditions: in vivo
[13] = Half life in Beagle dog at 5 mg/kg, iv measured upto 24 hrs by LC-MS/MS analysis; format: ADME, organism-based, Canis lupus familiaris; conditions: in vivo
[14] = Clearance in Sprague-Dawley rat at 10 mg/kg, iv measured upto 24 hrs by LC-MS/MS analysis; format: ADME, organism-based; conditions: in vivo
[15] = Half life in Sprague-Dawley rat at 10 mg/kg, iv measured upto 24 hrs by LC-MS/MS analysis; format: ADME, organism-based; conditions: in vivo
[16] = AUC in Beagle dog at 5 mg/kg, iv measured upto 24 hrs by LC-MS/MS analysis; format: ADME, organism-based, Canis lupus familiaris; design: time < 24 hrs, dose 5 mg/kg, route iv; conditions: in vivo
[17] = Clearance in Beagle dog at 5 mg/kg, iv measured upto 24 hrs by LC-MS/MS analysis; format: ADME, organism-based, Canis lupus familiaris; conditions: in vivo
[18] = Cytotoxicity against African green monkey Vero E6 cells assessed as reduction of cell viability by CCK8 assay; format: toxicity, cell-based, Vero C1008; conditions: chlorocebus sabaeus
SARS-CoV [19] = assay: microbe, parasite or virus in culture; conditions: Severe acute respiratory syndrome-related coronavirus, Vero C1008, 48 h
[20] = Binding affinity to SARS CoV Main protease incubated for 10 mins by FRET assay; design: species or system Severe acute respiratory syndrome-related coronavirus
[21] = Binding affinity to SARS CoV N-terminal his-tagged Main protease using Dabcyl-KTSAVLQSGFRKME-Edan peptide as substrate by fluorescence based analysis; design: species or system Severe acute respiratory syndrome-related coronavirus
[22] = Inhibition of SARS CoV N-terminal his-tagged Main protease using Dabcyl-KTSAVLQSGFRKME-Edan peptide as substrate by fluorescence based analysis; design: species or system Severe acute respiratory syndrome-related coronavirus
[23] = Drug concentration in mouse lung at 20 mg/kg, sc; format: ADME, organism-based; conditions: in vivo
[24] = Mean residence time in mouse at 20 mg/kg, sc; format: ADME, organism-based; conditions: in vivo
[25] = Half life in mouse at 20 mg/kg, sc; format: ADME, organism-based; conditions: in vivo
[26] = Cytotoxicity against human HCT-8 cells assessed as reduction in cell viability by neutral red uptake assay; format: toxicity, cell-based
SARS-CoV-2 [27] = format: functional, organism-based, Vero E6; conditions: Severe acute respiratory syndrome coronavirus 2, strain 107, Vero C1008
[28] = Oral bioavailability in Sprague-Dawley rat; format: ADME, organism-based; conditions: in vivo
[29] = Cytotoxicity against human A549 cells assessed as reduction in cell viability by neutral red uptake assay; format: toxicity, cell-based
[30] = Cytotoxicity against human Caco-2 cells assessed as reduction in cell viability by neutral red uptake assay; format: toxicity, cell-based
[31] = Cytotoxicity against African green monkey Vero cells assessed as reduction in cell viability by neutral red uptake assay; format: toxicity, cell-based; conditions: chlorocebus sabaeus
[32] = Cytotoxicity against dog MDCK cells assessed as reduction in cell viability by neutral red uptake assay; format: toxicity, cell-based, Canis lupus familiaris
[33] = Toxicity in rat assessed as median lethal dose; conditions: in vivo, read-out: MLD
SARS-CoV-2 [34] = assay: Antiviral activity against SARS CoV-2 assessed as inhibition of viral growth; format: functional, organism-based; conditions: Severe acute respiratory syndrome coronavirus 2
SARS-CoV [35] = format: functional, organism-based, Vero E6; conditions: Severe acute respiratory syndrome-related coronavirus, 2019-nCoV/USA_WA1/2020, Vero C1008, 72 h
[36] = Cytotoxicity against African green monkey Vero E6 cells assessed as reduction of cell viability by XTT assay; format: toxicity, cell-based, Vero C1008; conditions: chlorocebus sabaeus
[37] = Inhibition of SARS CoV Main protease by FRET assay; design: species or system Severe acute respiratory syndrome-related coronavirus
SARS-CoV-2 [38] = format: functional, organism-based, Vero E6; conditions: Severe acute respiratory syndrome coronavirus 2, Vero C1008

Cc1cc(S(=O)(=O)c2c([N+](=O)[O-])cc(C(F)(F)F)cc2[N+](=O)[O-])c(Cl)cc1Cl
IC50 [1]: 300 nM

CCOC(=O)/C=C/[C@H](C[C@@H]1CCNC1=O)NC(=O)[C@H](CC(C)C)NC(=O)[C@@H](NC(=O)OCc1ccccc1)C(C)C
IC50 [2]: 9100 nM
Ki [3]: 520 nM

CC(C)C[C@H](NC(=O)OCc1ccccc1)C(=O)N[C@@H](C[C@@H]1CCNC1=O)C(O)S(=O)(=O)O (stereo partly specified)
CC50 [4]: > 200000 nM
CC50 [5]: > 200000 nM
CC50 [6]: > 200000 nM
CC50 [7]: > 200000 nM

O=C(/C=C/c1ccccc1)N[C@@H](CC1CCCCC1)C(=O)N[C@@H](C[C@@H]1CCNC1=O)C(=O)C(=O)NCc1ccccc1
IC50 [8]: 710 nM
EC50 (SARS-CoV [9]): 1400 nM

O=C(/C=C/c1ccccc1)N[C@@H](CC1CC1)C(=O)N[C@@H](C[C@@H]1CCNC1=O)C(=O)C(=O)NCc1ccccc1
IC50 [8]: 240 nM
EC50 (SARS-CoV [9]): 1900 nM

CC(C)C[C@H](NC(=O)/C=C/c1ccccc1)C(=O)N[C@@H](C[C@@H]1CCNC1=O)C(=O)C(=O)NCc1ccccc1
IC50 [8]: 330 nM
EC50 (SARS-CoV [9]): 7200 nM

O=C(Oc1cncc(Cl)c1)c1cccs1
IC50 [10]: 81 nM
IC50 [11]: 500 nM

O=C[C@H](C[C@@H]1CCNC1=O)NC(=O)[C@H](Cc1cccc(F)c1)NC(=O)c1cc2ccccc2[nH]1
AUC at 24 h [12]: 41500 ng·h/mL
half-life [13]: 5.5 h
CC50 [4]: > 100000 nM
CC50 [5]: > 100000 nM
clearance [14]: 4.01 mL/min
half-life [15]: 7.6 h
CC50 [6]: > 100000 nM
AUC at 24 h [16]: 14900 ng·h/mL
CC50 [7]: > 100000 nM
clearance [17]: 5.8 mL/min

O=C[C@H](C[C@@H]1CCNC1=O)NC(=O)[C@H](CC1CCCCC1)NC(=O)c1cc2ccccc2[nH]1
CC50 [4]: > 100000 nM
CC50 [5]: > 100000 nM
CC50 [6]: > 100000 nM
CC50 [7]: > 100000 nM

C[C@@H](OC(C)(C)C)[C@H](NC(=O)OCc1ccccc1)C(=O)N[C@@H](CC1CCCCC1)C(=O)N[C@H](C=O)C[C@@H]1CCNC1=O
CC50 [18]: > 200000 nM
EC50 (SARS-CoV [19]): 600 nM
Ki [20]: 53 nM

O=C(On1nnc2ccccc21)c1ccc2[nH]ccc2c1
Ki [21]: 7.5 nM
IC50 [22]: 200 nM

CC(C)(C)OC(=O)Nc1cccn([C@@H](CC2CC2)C(=O)N[C@@H](C[C@@H]2CCNC2=O)C(=O)C(=O)NCc2ccccc2)c1=O
Ct [23]: 13 ng/g
MRT [24]: 2.7 h
half-life [25]: 1.8 h
IC50 [8]: 900 nM

CC(C)C[C@H](NC(=O)OCC1CCC(F)(F)CC1)C(=O)N[C@@H](C[C@@H]1CCNC1=O)C(O)S(=O)(=O)O (stereo partly specified)
CC50 [4]: > 100000 nM
CC50 [5]: > 100000 nM
CC50 [26]: > 100000 nM
CC50 [7]: > 100000 nM

CC1(C)[C@@H]2[C@@H](C(=O)N[C@H](C=O)C[C@@H]3CCNC3=O)N(C(=O)COc3ccc(OC(F)(F)F)cc3)C[C@@H]21
EC50 (SARS-CoV-2 [27]): 860 nM
bioavailability [28]: 14.6%

CCC[C@H](NC(=O)[C@H](CC(C)C)NC(=O)OCc1ccccc1)C(=O)C(=O)NCc1ccccn1
CC50 [29]: > 100000 nM
CC50 [30]: > 100000 nM
CC50 [31]: > 100000 nM
CC50 [32]: > 100000 nM

O=c1c2ccccc2[se]n1Cc1ccco1
LD50 [33]: > 4600 mg/kg
IC50 [10]: 74 nM
Ki [10]: 31 nM
EC50 (SARS-CoV-2 [34]): 4670 nM

CCOC(=O)/C=C/[C@H](C[C@@H]1CCNC1=O)NC(=O)[C@H](CC(C)C)NC(=O)[C@@H](NC(=O)OCc1ccccc1)[C@@H](C)OC(C)(C)C
EC50 (SARS-CoV [35]): 2880 nM
IC50 [10]: 151 nM
Ki [3]: 58 nM

CC(=O)/C=C/[C@H](C[C@@H]1CCNC1=O)NC(=O)[C@H](CC(C)C)NC(=O)[C@H](CNC(=O)C(C)(C)C)NC(=O)OCc1ccccc1
Ki [3]: 38 nM

O=C[C@H](C[C@@H]1CCNC1=O)NC(=O)[C@@H]1[C@H]2CCC[C@H]2CN1C(=O)COc1ccc(Cl)cc1Cl
bioavailability [28]: 11.2%

CCOC(=O)/C=C/[C@H](Cc1ccccc1)NC(=O)[C@H](Cc1ccccc1)NC(=O)/C=C\c1ccc(N(C)C)cc1
EC50 (SARS-CoV [35]): 18000 nM
CC50 [36]: > 200000 nM
Ki [3]: 660 nM

CC(C)C[C@H](NC(=O)OC1CCC(F)(F)CC1)C(=O)N[C@@H](C[C@@H]1CCNC1=O)C(O)S(=O)(=O)O (stereo partly specified)
CC50 [4]: > 100000 nM
CC50 [5]: > 100000 nM
CC50 [26]: > 100000 nM
IC50 [37]: 2200 nM
CC50 [7]: > 100000 nM

CC(C)C[C@H](NC(=O)OC1CCC(F)(F)CC1)C(=O)N[C@H](C=O)C[C@@H]1CCNC1=O
CC50 [4]: > 100000 nM
CC50 [5]: > 100000 nM
IC50 [37]: 480 nM
IC50 (SARS-CoV-2 [38]): 2300 nM
CC50 [7]: > 100000 nM

CCCCC1CCC(OC(=O)N[C@@H](CC(C)C)C(=O)N[C@@H](C[C@@H]2CCNC2=O)C(O)S(=O)(=O)O)CC1 (stereo partly specified)
CC50 [4]: 59100 nM
CC50 [5]: 59100 nM
IC50 [37]: 1000 nM
CC50 [7]: 59100 nM

CC(C)C[C@H](NC(=O)/C=C\c1ccccc1)C(=O)N[C@H](C=O)C[C@@H]1CCCNC1=O
Ki [20]: 53 nM

CC(C)C[C@H](NC(=O)OC1CCCCC1)C(=O)N[C@@H](C[C@@H]1CCNC1=O)C(O)S(=O)(=O)O (stereo partly specified)
CC50 [4]: > 100000 nM
CC50 [5]: > 100000 nM
IC50 [37]: 3800 nM
CC50 [7]: > 100000 nM

CC(C)C[C@H](NC(=O)[C@@H](NC(=O)OCc1ccccc1)[C@@H](C)OC(C)(C)C)C(=O)N[C@H](/C=C/C(=O)C1CC1)C[C@@H]1CCNC1=O
Ki [3]: 99 nM

CC(=O)N[C@H](C(=O)N[C@H](C(=O)N[C@@H](CC(C)C)C(=O)N[C@@H](CCC(=O)N(C)C)C(=O)Cn1[nH]c(=O)c2c([N+](=O)[O-])cccc2c1=O)[C@@H](C)OCc1ccccc1)C(C)C
IC50 [1]: 600 nM

CSCC[C@@H](C=O)NC(=O)[C@H](CC(C)C)NC(=O)[C@H](CC(C)C)NC(C)=O (Ac-Leu-Leu-Met-aldehyde)
CC50 [29]: > 100000 nM
CC50 [30]: > 100000 nM
CC50 [31]: > 100000 nM
CC50 [32]: > 100000 nM

O=c1cc(-c2ccccc2)oc2cc(O)c(O)c(O)c12 [BAICALEIN]
CC50 [6]: > 200000 nM
